The assay deals with endothelial nitric oxide synthase. The assay is described as follows: eNOS phosphorylation level in isolated aortic rat rings (western blot). Type of assay: cell-based. Conditions: isolated thoracic aortic rings of male adult Wistar rats, 1 h incubation, relative to the control (DMSO 1%) and chemically similar epicatechins, FIG. 2. The procedure:
Comparative experiments were conducted on the expression of endothelial nitric oxide synthase in isolated aortic rat rings.
Thoracic aortas were obtained from male adults Wistar rats after euthanasia. Each aorta was carefully dissected and harvested cleaned of excess tissue and cut into three equal segments, approximately 7 mm long. All aortic rings were pre-incubated for 30 min in Krebs solution (20 mM Hepes buffer, pH 7.4, containing 119 mM NaCl, 4.7 mM KCl, 1 mM MgSO4, 0.4 mM NaH2PO4, 0.15 mM Na2HPO4, 5 mM NaHCO3, 1.25 mM CaCl2, 5.5 mM glucose) aerated with 95% 02 and 5% CO2 at 37° C. and then incubated with vehicle (DMSO 1%) or the different metabolites for 1 h. Metabolites were first dissolved in DMSO 1% and tested in a final concentration […]. At the end of the incubation period aortic rings were frozen at −70° C. until the homogenate preparation. Homogenates for western blot and western blot determinations were carried out by the regular procedures and phosphorylation level of endothelial nitric oxide synthase was evaluated.
In general terms: A western blot detects proteins with antibodies after separation by electrophoresis.

Consider `COc1cc([C@H]2Oc3cc(O)cc(OS(=O)(=O)O)c3C[C@H]2O)ccc1O` [3′-O-methyl-5-O-sulfate epicatechin], for which the eNOS phosphorylation result is “increased eNOS phosphorylation relative to the control and chemically similar epicatechins”.

The values are drawn from US20210196672A1, “COMPOSITIONS COMPRISING 3'-O-METHYL-5-O-SULFATE EPICATECHIN AND THERAPEUTIC USES OF SUCH COMPOSITIONS” (NESTEC S.A., priority 2016, published 2021).
